Reference: ChEMBL document CHEMBL3525978, “Preferred binding orientations of phenacetin in CYP1A1 and CYP1A2 are associated with isoform-selective metabolism” (Drug Metab Dispos, 2012)

Legend:
Type in all cases: ADME
Cytochrome P450 1A1 = target: T1, Cytochrome P450 1A1 (Homo sapiens, UniProt P04798); assay: Ratio of Kcat to Km for CYP1A1 (unknown origin) expressed in Escherichia coli DH5alpha preincubated for 5 mins before NADPH addition measured after 30 mins by HPLC analysis; conditions: 0.5 h
T1 sequence (P04798 whole entry): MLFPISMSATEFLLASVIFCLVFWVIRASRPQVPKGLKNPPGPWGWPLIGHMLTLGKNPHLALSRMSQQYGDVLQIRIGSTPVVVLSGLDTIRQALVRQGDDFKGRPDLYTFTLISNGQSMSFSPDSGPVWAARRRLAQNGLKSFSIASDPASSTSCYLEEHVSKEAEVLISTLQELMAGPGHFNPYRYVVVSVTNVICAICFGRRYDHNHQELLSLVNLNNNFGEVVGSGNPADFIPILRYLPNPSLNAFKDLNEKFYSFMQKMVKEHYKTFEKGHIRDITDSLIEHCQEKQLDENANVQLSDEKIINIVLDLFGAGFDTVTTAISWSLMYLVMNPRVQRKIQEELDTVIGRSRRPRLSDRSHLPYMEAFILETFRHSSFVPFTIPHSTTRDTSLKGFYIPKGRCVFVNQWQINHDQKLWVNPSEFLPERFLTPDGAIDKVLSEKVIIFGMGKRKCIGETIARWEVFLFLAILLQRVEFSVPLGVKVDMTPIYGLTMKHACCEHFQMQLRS

Cytochrome P450 1A2 = target: T2, Cytochrome P450 1A2 (Homo sapiens, UniProt P05177); assay: Ratio of Kcat to Km for CYP1A2 (unknown origin) expressed in Escherichia coli DH5alpha preincubated for 5 mins before NADPH addition measured after 30 mins by HPLC analysis; conditions: 0.5 h
T2 sequence (P05177 whole entry): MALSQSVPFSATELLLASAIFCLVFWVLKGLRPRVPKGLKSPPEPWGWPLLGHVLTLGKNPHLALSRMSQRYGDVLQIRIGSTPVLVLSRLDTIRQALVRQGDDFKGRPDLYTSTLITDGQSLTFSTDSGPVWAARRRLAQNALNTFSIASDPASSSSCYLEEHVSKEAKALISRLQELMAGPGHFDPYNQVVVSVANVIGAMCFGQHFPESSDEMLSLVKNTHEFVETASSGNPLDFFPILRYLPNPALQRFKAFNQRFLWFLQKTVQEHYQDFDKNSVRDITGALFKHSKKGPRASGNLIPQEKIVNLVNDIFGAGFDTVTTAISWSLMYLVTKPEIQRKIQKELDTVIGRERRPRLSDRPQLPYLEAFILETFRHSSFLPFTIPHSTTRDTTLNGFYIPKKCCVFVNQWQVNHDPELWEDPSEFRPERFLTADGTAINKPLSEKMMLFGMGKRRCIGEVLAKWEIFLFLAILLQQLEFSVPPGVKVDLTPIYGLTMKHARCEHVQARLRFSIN

CYP1A1, CYP1A2 = assay: Ratio of Km for CYP1A1 (unknown origin) expressed in Escherichia coli DH5alpha to Km for CYP1A2 (unknown origin) expressed in Escherichia coli DH5alpha; conditions: human
[1] = Ratio of Kcat for CYP1A2 (unknown origin) expressed in Escherichia coli DH5alpha to Kcat for CYP1A1 (unknown origin) expressed in Escherichia coli DH5alpha; conditions: human

Compound | Kcat/Km (Cytochrome P450 1A1) | Kcat/Km (Cytochrome P450 1A2) | selectivity ratio (CYP1A1, CYP1A2) | Ratio [1]
CC(=O)Nc1ccc(O)cc1 [ACETAMINOPHEN] | 0.001 | 0.018 | – | –
CCOc1ccc(NC(C)=O)cc1 [PHENACETIN] | – | – | 8 | 2.5
